Activity calls are given as the source filed them. No cut-off for these calls is given here.

The values that follow come from ChEMBL document CHEMBL1145851, “Novel substituted pyridinyl imidazoles as potent anticytokine agents with low activity against hepatic cytochrome P450 enzymes” (J Med Chem, 2003).

Sequence of CYP3A4 (P08684 whole entry): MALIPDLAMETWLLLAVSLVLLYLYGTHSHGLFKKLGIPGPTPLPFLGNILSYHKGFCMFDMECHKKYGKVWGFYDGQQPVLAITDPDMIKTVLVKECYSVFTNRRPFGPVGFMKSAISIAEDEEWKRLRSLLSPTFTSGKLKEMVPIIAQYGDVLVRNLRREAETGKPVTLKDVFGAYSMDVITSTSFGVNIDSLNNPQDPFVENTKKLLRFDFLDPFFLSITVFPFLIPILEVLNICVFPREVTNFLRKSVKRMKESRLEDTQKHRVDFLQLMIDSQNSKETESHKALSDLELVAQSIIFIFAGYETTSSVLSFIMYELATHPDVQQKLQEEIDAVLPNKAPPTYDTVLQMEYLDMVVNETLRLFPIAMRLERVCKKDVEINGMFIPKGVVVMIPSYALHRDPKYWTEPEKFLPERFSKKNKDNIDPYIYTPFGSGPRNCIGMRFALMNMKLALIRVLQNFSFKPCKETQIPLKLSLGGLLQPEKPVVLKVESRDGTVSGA
Sequence of CYP2D6 (P10635 whole entry): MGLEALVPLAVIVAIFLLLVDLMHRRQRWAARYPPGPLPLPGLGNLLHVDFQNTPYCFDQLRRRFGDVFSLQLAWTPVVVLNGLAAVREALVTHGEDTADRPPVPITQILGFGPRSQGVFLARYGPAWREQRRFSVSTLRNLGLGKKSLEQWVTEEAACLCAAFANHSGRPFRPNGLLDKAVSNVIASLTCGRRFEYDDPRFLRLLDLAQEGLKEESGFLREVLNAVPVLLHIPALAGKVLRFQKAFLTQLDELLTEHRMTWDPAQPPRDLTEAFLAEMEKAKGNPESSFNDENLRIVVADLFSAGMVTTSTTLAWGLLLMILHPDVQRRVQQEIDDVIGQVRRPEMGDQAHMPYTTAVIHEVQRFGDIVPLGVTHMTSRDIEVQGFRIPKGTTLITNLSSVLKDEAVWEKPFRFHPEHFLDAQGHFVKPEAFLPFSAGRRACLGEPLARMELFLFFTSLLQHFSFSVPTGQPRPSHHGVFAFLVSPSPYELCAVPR
Sequence of CYP2C19 (P33261 whole entry): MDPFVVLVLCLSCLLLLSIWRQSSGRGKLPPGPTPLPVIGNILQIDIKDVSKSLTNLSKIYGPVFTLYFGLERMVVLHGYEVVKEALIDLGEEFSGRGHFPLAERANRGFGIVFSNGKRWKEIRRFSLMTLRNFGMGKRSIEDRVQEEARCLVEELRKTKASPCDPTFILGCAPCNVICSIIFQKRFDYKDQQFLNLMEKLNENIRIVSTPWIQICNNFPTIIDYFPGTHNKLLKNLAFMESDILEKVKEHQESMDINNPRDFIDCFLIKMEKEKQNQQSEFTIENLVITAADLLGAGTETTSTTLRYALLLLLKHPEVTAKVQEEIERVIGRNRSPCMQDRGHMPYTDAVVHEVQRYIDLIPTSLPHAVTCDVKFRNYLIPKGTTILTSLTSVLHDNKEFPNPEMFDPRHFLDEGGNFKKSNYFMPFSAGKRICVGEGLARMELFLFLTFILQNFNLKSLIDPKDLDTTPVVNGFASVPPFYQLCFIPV

In the first data set the target is T1, MAP kinase p38 (Homo sapiens, UniProt O15264+Q15759+Q16539+P53778). The experiment in a line: Inhibition of p38-related IL1-beta release by PBMC cells at 10 e-4 to 10 e-8 M (no activity). In kind it is functional, cell-based.
Regarding `CSc1nc(-c2ccc(F)cc2)c(-c2ccnc(N(Cc3ccccc3)Cc3ccccc3)c2)n1C`, the NA entry was “inactive”.

For the next data set, the target named is T1, MAP kinase p38. The experiment in a line: Inhibitory activity against induction of IL-1-beta release in PBMCs. Type of data set: functional.
Consider `CSc1nc(-c2ccc(F)cc2)c(-c2ccnc(NC(C)=O)c2)n1C`, for which the IC50 came out at 0.075 µM.
As for `CSc1nc(-c2ccc(F)cc2)c(-c2ccncc2)n1C1CC(C)(C)NC(C)(C)C1`, the half-inhibitory concentration (IC50) came to 0.85 µM.
Still for that read-out and setting: to `CSc1nc(-c2ccc(F)cc2)c(-c2ccncc2)[nH]1` belongs 0.044 µM.
Same read-out and setting: to `CSc1nc(-c2ccc(F)cc2)c(-c2ccnc(NC(C)c3ccccc3)c2)n1C` (configuration not stated) belongs 0.015 µM.

The target of the next data set is T1, MAP kinase p38. The data set is described as follows: Inhibition of p38-related TNF-alpha release by PBMC cells at 10 e-4 to 10 e-8 M (no activity). In kind it is functional, cell-based.
On to `CSc1nc(-c2ccc(F)cc2)c(-c2ccnc(N(Cc3ccccc3)Cc3ccccc3)c2)n1C`, for which the NA result was “inactive”.

The target in the next data set is T1, MAP kinase p38. The experiment in a line: Inhibition of p38-related TNF-alpha release by whole blood cells at 10 e-4 to 10 e-8 M. Type of data set: functional.
As to `CSc1nc(-c2ccc(F)cc2)c(-c2ccnc(NC(C)=O)c2)n1C`, the concentration for half-maximal inhibition (IC50) amounted to 12.5 µM.
In turn, `CSc1nc(-c2ccc(F)cc2)c(-c2ccncc2)n1C1CC(C)(C)NC(C)(C)C1` came in with an IC50 of 19.1 µM.
Still for that read-out and setting: with `CSc1nc(-c2ccc(F)cc2)c(-c2ccncc2)[nH]1` the figure was 4.2 µM; with `CSc1nc(-c2ccc(F)cc2)c(-c2ccnc(NC(C)c3ccccc3)c2)n1C` (configuration not stated), 3 µM.

A further data set concerns the target T1, MAP kinase p38. The experiment in a line: Inhibitory activity against TNF-alpha release in PBM cells. In kind it is functional, cell-based.
For `CSc1nc(-c2ccc(F)cc2)c(-c2ccnc(NC(C)=O)c2)n1C`, the IC50 turned out to be 1.1 µM.
The same measure, in the same setting: to `CSc1nc(-c2ccc(F)cc2)c(-c2ccncc2)n1C1CC(C)(C)NC(C)(C)C1` belongs 16 µM; to `CSc1nc(-c2ccc(F)cc2)c(-c2ccncc2)[nH]1`, 0.9 µM; to `CSc1nc(-c2ccc(F)cc2)c(-c2ccnc(NC(C)c3ccccc3)c2)n1C` (configuration not stated), 0.11 µM.

The next data set has as its target CYP3A4 (Homo sapiens, UniProt P08684). The data set is described as follows: Inhibition of Cytochrome P450 3A4 at 10 uM. Type of data set: ADME.
As for `CSc1nc(-c2ccc(F)cc2)c(-c2ccnc(NC(C)=O)c2)n1C`, testing at 10 µM gave an inhibition of 16.5%.
Consider `CSc1nc(-c2ccc(F)cc2)c(-c2ccncc2)n1C1CC(C)(C)NC(C)(C)C1`, for which testing at 10 µM gave an inhibition of 49.6%.
Still for that read-out and setting: with `CSc1nc(-c2ccc(F)cc2)c(-c2ccncc2)[nH]1` the figure was 81.4%; with `CSc1nc(-c2ccc(F)cc2)c(-c2ccnc(NC(C)c3ccccc3)c2)n1C` (configuration not stated), 85.8%.

Another data set addresses CYP2C19 (Homo sapiens, UniProt P33261). The experiment in a line: Inhibition of Cytochrome P450 2C19 at 10 uM. Type of data set: ADME.
Regarding `CSc1nc(-c2ccc(F)cc2)c(-c2ccnc(NC(C)=O)c2)n1C`, 10 µM produced 20.3% inhibition.
Regarding `CSc1nc(-c2ccc(F)cc2)c(-c2ccncc2)n1C1CC(C)(C)NC(C)(C)C1`, the inhibition at 10 µM was determined as 15.3%.
The same measure, in the same setting: to `CSc1nc(-c2ccc(F)cc2)c(-c2ccncc2)[nH]1` belongs 79.5%; to `CSc1nc(-c2ccc(F)cc2)c(-c2ccnc(NC(C)c3ccccc3)c2)n1C` (configuration not stated), 90.9%.

The target of the next data set is CYP2C9 (Homo sapiens, UniProt P11712). The data set is described as follows: Inhibition of Cytochrome P450 2C9 at 10 uM. In kind it is ADME.
Sequence of CYP2C9 (P11712 whole entry): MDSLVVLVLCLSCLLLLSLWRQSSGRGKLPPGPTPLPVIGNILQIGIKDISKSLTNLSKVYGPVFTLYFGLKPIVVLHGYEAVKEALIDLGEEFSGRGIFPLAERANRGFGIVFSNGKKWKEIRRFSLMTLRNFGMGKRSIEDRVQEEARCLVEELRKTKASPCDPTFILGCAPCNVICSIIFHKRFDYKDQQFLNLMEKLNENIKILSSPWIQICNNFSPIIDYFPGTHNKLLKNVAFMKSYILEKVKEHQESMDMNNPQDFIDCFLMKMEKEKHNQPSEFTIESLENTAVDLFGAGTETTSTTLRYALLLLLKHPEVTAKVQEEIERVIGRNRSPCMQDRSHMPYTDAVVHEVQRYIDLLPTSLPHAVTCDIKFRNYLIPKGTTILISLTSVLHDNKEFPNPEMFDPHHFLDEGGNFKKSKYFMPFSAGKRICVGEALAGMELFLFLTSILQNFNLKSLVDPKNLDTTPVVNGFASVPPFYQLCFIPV
Molecule `CSc1nc(-c2ccc(F)cc2)c(-c2ccnc(NC(C)=O)c2)n1C` had an inhibition at 10 µM of 27.6%.
The same measure, in the same setting: to `CSc1nc(-c2ccc(F)cc2)c(-c2ccncc2)n1C1CC(C)(C)NC(C)(C)C1` belongs 7.9%; to `CSc1nc(-c2ccc(F)cc2)c(-c2ccncc2)[nH]1`, 72.4%; to `CSc1nc(-c2ccc(F)cc2)c(-c2ccnc(NC(C)c3ccccc3)c2)n1C` (configuration not stated), 83.3%.

A further data set addresses T2, CYP1A2 (Homo sapiens, UniProt P05177).
T2 sequence (P05177 whole entry): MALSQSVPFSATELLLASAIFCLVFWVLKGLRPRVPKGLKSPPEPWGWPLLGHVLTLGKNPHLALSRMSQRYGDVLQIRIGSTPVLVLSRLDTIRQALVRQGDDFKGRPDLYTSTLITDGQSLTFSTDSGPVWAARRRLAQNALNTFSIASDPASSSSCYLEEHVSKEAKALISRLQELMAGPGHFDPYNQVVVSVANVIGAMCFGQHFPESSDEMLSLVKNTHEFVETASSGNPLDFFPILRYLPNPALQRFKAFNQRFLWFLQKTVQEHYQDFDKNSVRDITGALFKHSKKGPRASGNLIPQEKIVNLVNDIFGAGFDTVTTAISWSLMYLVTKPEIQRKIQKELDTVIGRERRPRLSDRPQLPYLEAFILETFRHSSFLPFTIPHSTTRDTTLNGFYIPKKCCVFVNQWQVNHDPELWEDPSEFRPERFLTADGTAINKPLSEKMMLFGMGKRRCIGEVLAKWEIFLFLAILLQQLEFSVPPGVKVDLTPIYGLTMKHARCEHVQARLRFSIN
The experiment in a line: Inhibition of Cytochrome P450 1A2 at 10 uM. Type of data set: ADME.
The molecule `CSc1nc(-c2ccc(F)cc2)c(-c2ccnc(NC(C)=O)c2)n1C` displayed an inhibition at 10 µM of 32.4%.
Still for that read-out and setting: to `CSc1nc(-c2ccc(F)cc2)c(-c2ccncc2)n1C1CC(C)(C)NC(C)(C)C1` belongs 9%; to `CSc1nc(-c2ccc(F)cc2)c(-c2ccncc2)[nH]1`, 43.5%; to `CSc1nc(-c2ccc(F)cc2)c(-c2ccnc(NC(C)c3ccccc3)c2)n1C` (configuration not stated), 57.1%.

For another data set, the target named is T1, MAP kinase p38. The experiment in a line: Inhibition of p38-related IL1-beta release by whole blood cells at 10 e-4 to 10 e-8 M. In kind it is functional.
The molecule `CSc1nc(-c2ccc(F)cc2)c(-c2ccnc(NC(C)=O)c2)n1C` gave an IC50 of 10.8 µM.
Same read-out and setting: with `CSc1nc(-c2ccc(F)cc2)c(-c2ccncc2)n1C1CC(C)(C)NC(C)(C)C1` the figure was 18.5 µM; with `CSc1nc(-c2ccc(F)cc2)c(-c2ccncc2)[nH]1`, 1.2 µM.
Molecule `CSc1nc(-c2ccc(F)cc2)c(-c2ccnc(NC(C)c3ccccc3)c2)n1C` (configuration not stated) had an IC50 of 4.1 µM.

A further data set deals with T1, MAP kinase p38. The data set is described as follows: Inhibitory activity against mitogen-activated protein kinase p38 at 10 e-4 to 10 e-8 M concentration. Type of data set: protein assay.
In turn, `CSc1nc(-c2ccc(F)cc2)c(-c2ccnc(NC(C)=O)c2)n1C` yielded an IC50 of 0.5 µM.
Still for that read-out and setting: to `CSc1nc(-c2ccc(F)cc2)c(-c2ccncc2)n1C1CC(C)(C)NC(C)(C)C1` belongs 17 µM; to `CSc1nc(-c2ccc(F)cc2)c(-c2ccncc2)[nH]1`, 0.63 µM.
Still for that read-out and setting: to `CSc1nc(-c2ccc(F)cc2)c(-c2ccnc(NC(C)c3ccccc3)c2)n1C` (configuration not stated) belongs 0.22 µM.

A further data set addresses CYP2D6 (Homo sapiens, UniProt P10635). The data set is described as follows: Inhibition of Cytochrome P450 2D6 at 10 uM. Type of data set: ADME.
On to `CSc1nc(-c2ccc(F)cc2)c(-c2ccnc(NC(C)=O)c2)n1C`, for which at 10 µM the inhibition was 13.4%.
On the same count and under the same terms, to `CSc1nc(-c2ccc(F)cc2)c(-c2ccncc2)n1C1CC(C)(C)NC(C)(C)C1` belongs 19.1%; to `CSc1nc(-c2ccc(F)cc2)c(-c2ccncc2)[nH]1`, 39.8%.
On the same count and under the same terms, to `CSc1nc(-c2ccc(F)cc2)c(-c2ccnc(NC(C)c3ccccc3)c2)n1C` (configuration not stated) belongs 12.4%.

The term IC50 denotes the concentration that gives 50% inhibition. Low values mean inhibition by little substance, high ones a need for much substance. As a reminder, the inhibition is the relative decrease from the control value, in per cent. Higher therefore signals a response far below the control.
